# Like-named read-outs stand apart in the source and are kept apart here.
# Key:
# MDA-MB-231 = test: MTT cytotoxicity assay; format: cell-based, human; details: for IC50: MTT, 72 h, human breast adenocarcinoma; for SI MDA-MB-231: SI = IC50 for normal cell line (HaCaT)/IC50 cancer cell line
# Protocol: (§1) The human primary (SW480) and metastatic (SW620) colon cancer, metastatic prostate cancer (PC3), breast adenocarcinoma (MDA-MB-231) and human immortal keratinocyte (HaCaT) cell lines were recruited from the American Type Culture Collection (ATCC). The cells were cultured in the recommended medium according to protocols (RPMI 1640 for PC3, MEM for SW480 and SW620, as well as DMEM for MDA-MB-231 and HaCaT cells) with addition of 10% FBS, penicillin (100 U/mL), and streptomycin (100 μg/mL) and cultured in 37 °C/5% CO2 in a humidified incubator. Then, the cells were passaged at a confluence of 80–90% by a treatment with 0.25% trypsin (Gibco Life Technologies) and used for studies.
# (§2) They were added to 96-well plates with seeded normal and cancer cells (1 × 10^4 cells per well) and incubated for 72 h. MTT analysis was performed according to a previous study.
# SW480 = test: MTT cytotoxicity assay; format: cell-based, human; details: for IC50: MTT, 72 h, human primary colon cancer; for SI SW480: SI = IC50 for normal cell line (HaCaT)/IC50 cancer cell line
# Protocol: as §1, §2
# SW620 = test: MTT cytotoxicity assay; format: cell-based, human; details: for IC50: MTT, 72 h, human metastatic colon cancer; for SI SW620: SI = IC50 for normal cell line (HaCaT)/IC50 cancer cell line
# Protocol: as §1, §2
# PC3 = test: MTT cytotoxicity assay; format: cell-based, human; details: for IC50: MTT, 72 h, human metastatic prostate cancer; for SI PC3: SI = IC50 for normal cell line (HaCaT)/IC50 cancer cell line
# Protocol: as §1, §2
# HaCaT = test: MTT cytotoxicity assay, normal cells; format: cell-based; details: 72 h, human immortal keratinocytes (normal cells)
# Protocol: as §1, §2
# [1] = test system: tested cancer cell lines (SW480, SW620, PC3, MDA-MB-231); test: MTT assay, mean over tested cancer cell lines; format: cell-based; details: Homo sapiens, mean of the four cancer cell lines
# Protocol: They were added to 96-well plates with seeded normal and cancer cells (1 × 10^4 cells per well) and incubated for 72 h. MTT analysis was performed according to a previous study. […]
# [2] = Table S7, >100 entered as 100, read-out: mean anticancer IC50
# [3] = read-out: average IC50 against tested cancer cell lines
"IC50 [1, 2] [µM]","IC50 [1, 3] [µM]",SMILES,IC50 (MDA-MB-231) [µM],IC50 (SW480) [µM],IC50 (SW620) [µM],IC50 (MDA-MB-231; MDA-MB-231) [µM],SI MDA-MB-231 (MDA-MB-231),IC50 (PC3; PC-3) [µM],SI PC3 (PC3),SI SW480 (SW480),IC50 (SW480; SW480) [µM],SI SW620 (SW620),IC50 (SW620; SW-620) [µM],IC50 (HaCaT; HaCaT) [µM],IC50 (PC3) [µM],IC50 (HaCaT) [µM]
–,–,"N.N.[Cl][Pt][Cl] [Cisplatin, reference compound]",7.3 ± 0.8,10.4 ± 0.9,6.7 ± 1.1,–,–,–,–,–,–,–,–,–,–,–
> 100,–,"CC(C)[C@H]1CC[C@H](C)C[C@@H]1OC(=O)c1cc2ccccc2oc1=O [Compound 1b, (1S,2R,5S)-2-Isopropyl-5-methylcyclohexyl 2-oxo-2H-chromene-3-carboxylate]",–,–,–,> 100,0.41,> 100,0.41,0.41,> 100,0.41,> 100,41.1 ± 2.8,–,–
> 100,–,"COc1ccc2cc(C(=O)O[C@@H]3C[C@H](C)CC[C@H]3C(C)C)c(=O)oc2c1 [Compound 1c, (1R,2S,5R)-2-Isopropyl-5-methylcyclohexyl 7-methoxy-2-oxo-2H-chromene-3-carboxylate]",–,–,–,> 100,0.15,> 100,0.15,0.15,> 100,0.15,> 100,15.3 ± 4.41,–,–
> 47.8,> 47.8,"COc1cccc2cc(C(=O)O[C@@H]3C[C@H](C)CC[C@H]3C(C)C)c(=O)oc12 [Compound 1d, (1R,2S,5R)-2-Isopropyl-5-methylcyclohexyl 8-Methoxy-2-oxo-2H-chromene-3-carboxylate]",–,–,–,36.6 ± 7.74,2.73,29.3 ± 2.05,3.41,3.93,25.4 ± 6.12,1,> 100,> 100,–,–
43.7,43.7,"CC(C)[C@@H]1CC[C@@H](C)C[C@H]1OC(=O)c1cc2ccc(O)cc2oc1=O [Compound 1e, (1R,2S,5R)-2-Isopropyl-5-methylcyclohexyl 7-hydroxy-2-oxo-2H-chromene-3-carboxylate]",–,–,–,86.7 ± 2.24,0.91,21.8 ± 4.21,3.61,2.84,27.7 ± 2.42,2.03,38.7 ± 0.01,78.8 ± 7.12,–,–
> 100,–,"O=C(OC1CCCCC1)c1cc2ccccc2oc1=O [Compound 1f, Cyclohexyl 2-Oxo-2H-chromene-3-carboxylate]",–,–,–,> 100,1,> 100,1,1,> 100,1,> 100,> 100,–,–
–,–,"CCOP(=O)(OCC)c1cc2ccccc2oc1=O [Compound 2a, Diethyl (2-Oxo-2H-chromen-3-yl)phosphonate]",> 100,> 100,> 100,–,1,–,1,1,–,1,–,–,> 100,> 100
> 100,–,"COc1cccc2cc(P(=O)(c3ccccc3)c3ccccc3)c(=O)oc12 [Compound 3, 3-(Diphenylphosphinyl)-8-methoxy-2H-chromen-2-one]",–,–,–,> 100,1,> 100,1,1,> 100,1,> 100,> 100,–,–
–,–,"COc1cccc2c1C(=O)c1c(O)c3c(c(O)c1C2=O)C[C@@](O)(C(=O)CO)C[C@@H]3O[C@H]1C[C@H](N)[C@H](O)[C@H](C)O1 [Doxorubicin, reference compound]",–,–,–,1.6 ± 0.2,–,0.3 ± 0.1,1.0,0.4,0.7 ± 0.1,1.0,0.3 ± 0.1,0.3 ± 0.1,–,–
